Values after ≈ are worked out from the molar mass of the structure shown.
Key:
[1] = system: Staphylococcus aureus SG 511; assay: Serial dilution test in the microtiter system, MIC against S. aureus SG 511; format: cell-based; details: SG511, minimum inhibitory concentration, 37° C., 18 to 20 hours
Protocol: (§1) The tests were performed using the serial dilution test in the microtiter system. The effect of the test compounds on bacteriostasis was examined at the following concentrations: 80, 40, 20, 10, 5, 2.5, 1.25, 0.6, 0.3, 0.08 and 0.02 μgm/ml. The nutrient medium consisted of 10 gm of peptone, 8 gm of meat extract oxoid, 3 gm of sodium chloride, and 2 gm of sec. sodium phosphate diluted with distilled water to […] (pH 7.2-7.4). Only in the test against streptococci 1% of glucose was added. The age of the primary cultures was approximately 20 hours. The standardization of the bacteria suspension was effected using a photometer according to the method of Eppendorf (test tube .phi. 14 mm, filter 546 nm), using for comparison a barium sulfate suspension formed by the addition of 3.0 ml of 1% barium chloride solution to 97 ml of 1% sulfuric acid. After the standardization,Streptococcus aronson was further diluted to a concentration of 1:15, and the other bacteria to a concentration of 1:1500, using a sodium chloride solution.
(§2) 16 mgm of the particular test compound were put into a 10 ml measuring flask, and the flask was subsequently filled to the mark with solvent. The further dilution series was standardized with distilled water or the appropriate solvent.
(§3) The cavities of the microtiter plates were filled with 0.2 ml of nutrient medium. 0.01 ml of the appropriate test compound solution was then added, followed by inoculation with 0.01 ml of the standardized bacteria suspension. The bacteria were incubated at 37° C. for 18 to 20 hours. Control tests using only the solvent were carried out simultaneously.
(§4) The measurement was carried out macroscopically to determine the minimum inhibitory concentration (the lowest still bacteriostatically effective concentration).
(§5) The following test organisms were used:
(§6) Staphylococcus aureus SG 511, St. aureus E 88 (β-lactamase carrier), Escherichia coli ATCC 11 775, Pseudomonas aeruginosa Hamburgensis and Pseudomonas aeruginosa Walter, Serratia macrescens ATCC 13 880, Klebsiella pneumoniae ATCC 10 031 and 272, Proteus mirabilis Hamburgensis, Proteus rettgeri Eb. cloaceae ATCC 13047, and E. coli R+TEM (β-lactamase carrier).
(§7) The following tables show the determined minimum inhibitory concentrations (MIC) for a few representative compounds (E=Na) of the present invention, and two known cephalosporins for comparison: […]

St. aureus E 88 = assay: Serial dilution test in the microtiter system, MIC against S. aureus E 88 (β-lactamase carrier); format: cell-based; details: Staphylococcus aureus, E88, minimum inhibitory concentration, 37° C., 18 to 20 hours
Protocol: as §1, §2, §3, §4, §5, §6, §7

[2] = system: Escherichia coli ATCC 11 775; assay: Serial dilution test in the microtiter system, MIC against E. coli ATCC 11775; format: cell-based; details: minimum inhibitory concentration, 37° C., 18 to 20 hours
Protocol: as §1, §2, §3, §4, §5, §6, §7

[3] = system: Pseudomonas aeruginosa Hamburgensis; assay: Serial dilution test in the microtiter system, MIC against Pseudomonas aeruginosa Hamburgensis; format: cell-based; details: minimum inhibitory concentration, 37° C., 18 to 20 hours, read-out: MIC, Pseud. aerug. Hbg.
Protocol: as §1, §2, §3, §4, §5, §6, §7

[4] = system: Pseudomonas aeruginosa Walter; assay: Serial dilution test in the microtiter system, MIC against Pseudomonas aeruginosa Walter; format: cell-based; details: minimum inhibitory concentration, 37° C., 18 to 20 hours, read-out: MIC, Pseud. aerug. Walter
Protocol: as §1, §2, §3, §4, §5, §6, §7

[5] = system: Klebsiella pneumoniae ATCC 10 031; assay: Serial dilution test in the microtiter system, MIC against Klebsiella pneumoniae ATCC 10031; format: cell-based; details: minimum inhibitory concentration, 37° C., 18 to 20 hours, read-out: MIC, Klebs. pneum. ATCC 10031
Protocol: as §1, §2, §3, §4, §5, §6, §7

[6] = system: Klebsiella pneumoniae 272; assay: Serial dilution test in the microtiter system, MIC against Klebsiella pneumoniae 272; format: cell-based; details: minimum inhibitory concentration, 37° C., 18 to 20 hours, read-out: MIC, Klebs. pneum. 272
Protocol: as §1, §2, §3, §4, §5, §6, §7

[7] = system: Proteus mirabilis Hamburgensis; assay: Serial dilution test in the microtiter system, MIC against Proteus mirabilis Hamburgensis; format: cell-based; details: minimum inhibitory concentration, 37° C., 18 to 20 hours, read-out: MIC, Prot. Mir. Hbg.
Protocol: as §1, §2, §3, §4, §5, §6, §7

Proteus rettgeri = assay: Serial dilution test in the microtiter system, MIC against Proteus rettgeri; format: cell-based; details: Providencia rettgeri; minimum inhibitory concentration; 37° C., 18 to 20 hours; read-out: MIC, Prot. rettg.
Protocol: as §1, §2, §3, §4, §5, §6, §7

Eb. cloaceae ATCC 13047 = assay: Serial dilution test in the microtiter system, MIC against Eb. cloaceae ATCC 13047; format: cell-based; details: minimum inhibitory concentration; 37° C., 18 to 20 hours
Protocol: as §1, §2, §3, §4, §5, §6, §7

E. coli R+TEM = assay: Serial dilution test in the microtiter system, MIC against E. coli R+TEM (β-lactamase carrier); format: cell-based; details: Escherichia coli, read-out: MIC, E. coli R + TEM
Protocol: as §1, §2, §3, §4, §5, §6, §7

[8] = system: Serratia macrescens ATCC 13 880; assay: Serial dilution test in the microtiter system, MIC against Serratia marcescens ATCC 13880; format: cell-based; details: read-out: MIC, Serr. marcesc. ATCC 13880
Protocol: as §1, §2, §3, §4, §5, §6, §7

E. coli ATCC 11775 = assay: In vivo test in mice against experimental E. coli infection; design: species or system Female NMRI mice; details: Escherichia coli, ATCC11775, sc, 168 h; subcutaneous; per dose; dose at which 50% of the animals survived; observation 7 days
Protocol: (§8) A series of the compounds according to the invention was tested in vivo in mice against experimental infections. As pathogenic bacteria were used E. coli ATCC 11775 and Pseudomonas aeruginosa Walter. An intraperitoneal infection was induced in each mouse with 0.2 ml of a 5% mucin suspension of the bacteria corresponding of approximately 1.4×10^6 E. coli cells and 1.3×10^6 Pseudomonas cells per mouse. Female NMRI mice were used, divided into groups of 10 animals. Two groups were untreated and the remaining groups were treated with different doses of the cephalosporins to be tested to determine the ED50 (dose at which 50% of the animals survived). The groups infected with E. coli were on the first day treated with the test compound three times ([…] post infectionem) and on the second day twice. The groups with the Pseudomonas infection were on the first day treated with the test compound six times (1, 3, 5, 7, 9 and 11 hours post infectionem), and on the following two days twice.
(§9) The observation time was in both cases 7 days.

[9] = system: Pseudomonas aeruginosa Walter; assay: In vivo test in mice against experimental Pseudomonas infection; design: species or system Female NMRI mice; details: subcutaneous, observation 7 days; for ED50: Pseudomonas aeruginosa, sc, 168 h, per dose, dose at which 50% of the animals survived
Protocol: as §8, §9

CNS(=O)(=O)c1ccc(Nc2ncc(NC(=O)N[C@@H](C(=O)N[C@@H]3C(=O)N4C(C(=O)O)=C(CSc5nnnn5C)CS[C@H]34)c3ccc(O)cc3)c(O)n2)cc1 [K]
MIC [1]: 0.5 µg/mL (≈ 0.626 µM)
MIC (St. aureus E 88): 4 µg/mL (≈ 5.01 µM)
MIC [2]: < 0.03 µg/mL
MIC [3]: 4 µg/mL (≈ 5.01 µM)
MIC [4]: 2 µg/mL (≈ 2.5 µM)
MIC [5]: 0.06 µg/mL (≈ 0.0751 µM)
MIC [6]: 0.13 µg/mL (≈ 0.163 µM)
MIC [7]: 0.06 µg/mL (≈ 0.0751 µM)
MIC (Proteus rettgeri): 0.25 µg/mL (≈ 0.313 µM)
MIC (Eb. cloaceae ATCC 13047): 0.5 µg/mL (≈ 0.626 µM)
MIC (E. coli R+TEM): 2 µg/mL
MIC [8]: 0.13 µg/mL (≈ 0.163 µM)
ED50 (E. coli ATCC 11775): 0.3 mg/kg
ED50 [9]: 3.6 mg/kg

Cn1nnnc1SCC1=C(C(=O)O)N2C(=O)[C@@H](NC(=O)[C@H](NC(=O)Nc3cnc(Nc4ccc(S(N)(=O)=O)cc4)nc3O)c3ccc(O)cc3)[C@H]2SC1 [L]
MIC [1]: 0.5 µg/mL (≈ 0.637 µM)
MIC (St. aureus E 88): 4 µg/mL (≈ 5.1 µM)
MIC [2]: < 0.03 µg/mL
MIC [3]: 2 µg/mL (≈ 2.55 µM)
MIC [4]: 2 µg/mL (≈ 2.55 µM)
MIC [5]: 0.06 µg/mL (≈ 0.0765 µM)
MIC [6]: 0.06 µg/mL (≈ 0.0765 µM)
MIC [7]: < 0.06 µg/mL
MIC (Proteus rettgeri): 0.13 µg/mL (≈ 0.166 µM)
MIC (Eb. cloaceae ATCC 13047): 0.5 µg/mL (≈ 0.637 µM)
MIC (E. coli R+TEM): 2 µg/mL
MIC [8]: 0.06 µg/mL (≈ 0.0765 µM)
ED50 (E. coli ATCC 11775): 0.15 mg/kg
ED50 [9]: 2.1 mg/kg

CO/N=C(\C(=O)N[C@@H]1C(=O)N2C(C(=O)O)=C(COC(N)=O)CS[C@H]12)c1ccco1 [Cefuroxim, reference compound]
MIC [1]: 1 µg/mL (≈ 2.36 µM)
MIC (St. aureus E 88): 16 µg/mL (≈ 37.7 µM)
MIC [2]: 8 µg/mL (≈ 18.9 µM)
MIC [3]: > 100 µg/mL
MIC [4]: > 100 µg/mL
MIC [5]: 2 µg/mL (≈ 4.71 µM)
MIC [6]: 4 µg/mL (≈ 9.43 µM)
MIC [7]: 0.5 µg/mL (≈ 1.18 µM)
MIC (Proteus rettgeri): 2 µg/mL (≈ 4.71 µM)
MIC (Eb. cloaceae ATCC 13047): 32 µg/mL (≈ 75.4 µM)
MIC (E. coli R+TEM): 4 µg/mL
MIC [8]: 8 µg/mL (≈ 18.9 µM)
ED50 (E. coli ATCC 11775): 37 mg/kg
Mortality, Pseudomonas infection ([9]; at 200 mg/kg per dose): all animals died

CNS(=O)(=O)c1ccc(Nc2ncc(NC(=O)N[C@@H](C(=O)N[C@@H]3C(=O)N4C(C(=O)O)=C(CSc5nnc(C)s5)CS[C@H]34)c3ccc(O)cc3)c(O)n2)cc1 [N]
MIC [1]: 1 µg/mL (≈ 1.23 µM)
MIC (St. aureus E 88): 8 µg/mL (≈ 9.82 µM)
MIC [2]: 0.25 µg/mL (≈ 0.307 µM)
MIC [3]: 4 µg/mL (≈ 4.91 µM)
MIC [4]: 4 µg/mL (≈ 4.91 µM)
MIC [5]: 0.25 µg/mL (≈ 0.307 µM)
MIC [6]: 0.5 µg/mL (≈ 0.614 µM)
MIC [7]: 0.5 µg/mL (≈ 0.614 µM)
MIC (Proteus rettgeri): 0.5 µg/mL (≈ 0.614 µM)
MIC (Eb. cloaceae ATCC 13047): 1 µg/mL (≈ 1.23 µM)
MIC (E. coli R+TEM): 4 µg/mL
MIC [8]: 0.25 µg/mL (≈ 0.307 µM)

CNc1nnc(SCC2=C(C(=O)O)N3C(=O)[C@@H](NC(=O)[C@H](NC(=O)Nc4cnc(Nc5ccc(S(=O)(=O)NC)cc5)nc4O)c4ccc(O)cc4)[C@H]3SC2)s1 [J]
MIC [1]: 1 µg/mL (≈ 1.2 µM)
MIC (St. aureus E 88): 16 µg/mL (≈ 19.3 µM)
MIC [2]: 0.5 µg/mL (≈ 0.602 µM)
MIC [3]: 8 µg/mL (≈ 9.64 µM)
MIC [4]: 8 µg/mL (≈ 9.64 µM)
MIC [5]: 0.5 µg/mL (≈ 0.602 µM)
MIC [6]: 0.25 µg/mL (≈ 0.301 µM)
MIC [7]: 0.25 µg/mL (≈ 0.301 µM)
MIC (Proteus rettgeri): 1 µg/mL (≈ 1.2 µM)
MIC (Eb. cloaceae ATCC 13047): 1 µg/mL (≈ 1.2 µM)
MIC (E. coli R+TEM): 8 µg/mL
MIC [8]: 0.5 µg/mL (≈ 0.602 µM)

Cc1nnc(SCC2=C(C(=O)O)N3C(=O)[C@@H](NC(=O)[C@H](NC(=O)Nc4cnc(NC5CCC(O)CC5)nc4O)c4ccc(O)cc4)[C@H]3SC2)s1 (stereo partly drawn) [G]
MIC [1]: 1 µg/mL (≈ 1.34 µM)
MIC (St. aureus E 88): 16 µg/mL (≈ 21.5 µM)
MIC [2]: 0.5 µg/mL (≈ 0.672 µM)
MIC [3]: 16 µg/mL (≈ 21.5 µM)
MIC [4]: 16 µg/mL (≈ 21.5 µM)
MIC [5]: 2 µg/mL (≈ 2.69 µM)
MIC [6]: 2 µg/mL (≈ 2.69 µM)
MIC [7]: 0.5 µg/mL (≈ 0.672 µM)
MIC (Proteus rettgeri): 1 µg/mL (≈ 1.34 µM)
MIC (Eb. cloaceae ATCC 13047): 2 µg/mL (≈ 2.69 µM)
MIC (E. coli R+TEM): 16 µg/mL
MIC [8]: 2 µg/mL (≈ 2.69 µM)

CC(=O)Nc1nnc(SCC2=C(C(=O)O)N3C(=O)[C@@H](NC(=O)[C@H](NC(=O)Nc4cnc(NC5CCC(O)CC5)nc4O)c4ccc(O)cc4)[C@H]3SC2)s1 (stereo partly drawn) [D]
MIC [1]: 1 µg/mL (≈ 1.27 µM)
MIC (St. aureus E 88): 8 µg/mL (≈ 10.2 µM)
MIC [2]: 1 µg/mL (≈ 1.27 µM)
MIC [3]: 8 µg/mL (≈ 10.2 µM)
MIC [4]: 8 µg/mL (≈ 10.2 µM)
MIC [5]: 2 µg/mL (≈ 2.54 µM)
MIC [6]: 2 µg/mL (≈ 2.54 µM)
MIC [7]: 1 µg/mL (≈ 1.27 µM)
MIC (Proteus rettgeri): 8 µg/mL (≈ 10.2 µM)
MIC (Eb. cloaceae ATCC 13047): 8 µg/mL (≈ 10.2 µM)
MIC (E. coli R+TEM): 16 µg/mL
MIC [8]: 4 µg/mL (≈ 5.08 µM)
